Measured values taken from patent US11535643B2, “Macrolides with modified desosamine sugars and uses thereof” (President and Fellows of Harvard College, priority 2015, dated 2022).
Values after ≈ are worked out from the molar mass of the structure shown. Like-named read-outs stand apart in the source and are kept apart here.

Experiments:
Type in all cases: cell-based
[1] = tested on: A. baumannii; assay: Broth dilution MIC determination (CLSI) against A. baumannii strains
Description: (§1) Minimum inhibitory concentrations (MICs) for macrolides described herein have been determined for unique strains of S. aureus, S. pneumoniae, S. pyogenes, E. faecalis, E. coli, A. baumannii, K. pneumoniae, P. aeruginosa, and H. influenzae, including several multidrug-resistant strains, with a special focus on macrolide resistant mechanisms. Azithromycin and solithromycin were included as control compounds. CLSI standard procedures for broth dilution MIC determination were used. Data for exemplary compounds described herein is shown in Tables M1-M7 and in Tables N1-N4.

[2] = tested on: E. faecalis; assay: Broth dilution MIC determination (CLSI) against E. faecalis strains; settings: Enterococcus faecalis
Description: as §1

[3] = tested on: S. pyogenes; assay: Broth dilution MIC determination (CLSI) against S. pyogenes strains; settings: Streptococcus pyogenes
Description: as §1

[4] = tested on: E. coli; assay: Broth dilution MIC determination (CLSI) against E. coli strains
Description: as §1

[5] = tested on: P. aeruginosa; assay: Broth dilution MIC determination (CLSI) against P. aeruginosa strains
Description: as §1

[6] = tested on: K. pneumoniae; assay: Broth dilution MIC determination (CLSI) against K. pneumoniae strains
Description: as §1, with “used.” for “used. Data for exemplary compounds described herein is shown in Tables M1-M7 and in Tables N1-N4.”

[7] = tested on: S. aureus; assay: Broth dilution MIC determination (CLSI) against S. aureus strains
Description: as §1

[8] = tested on: S. pneumoniae; assay: Broth dilution MIC determination (CLSI) against S. pneumoniae strains; settings: Streptococcus pneumoniae
Description: as §1

[9] = A. baumannii ATCC 19606, strain MP-15 (Table N4)
[10] = A. baumannii Clinical-AZT low, strain MP-577 (Table N4)
[11] = A. baumannii Clinical-MDR, strain MP-576 (Table N4)
[12] = E. coli ATCC25922, strain MP-4 (Table N4)
[13] = E. coli Clinical, strain MP-541 (Table N4)
[14] = E. coli clinical-cErmB, strain MP-532 (Table N4)
[15] = E. coli tolC, strain MP-9 (Table N4)
[16] = P. aeruginosa ATCC27853, strain MP-3 (Table N4)
[17] = P. aeruginosa PAO1, strain MP-7 (Table N4)
[18] = P. aeruginosa mex-oprM-deletion, strain MP-8 (Table N4)
[19] = K. pneumoniae ATCC 10031, strain MP-14 (Table N4)
[20] = K. pneumoniae Clinical, strain MP-548 (Table N4)
[21] = K. pneumoniae Clinical-MDR, strain MP-546 (Table N4)
[22] = S. aureus ATCC29213, strain MP-12 (Table N4)
[23] = S. aureus BAA 977 iErm, strain MP-17 (Table N4)
[24] = S. aureus Clinical-cErm, strain MP-513 (Table N4)
[25] = S. aureus USA300-msr(a), strain MP-549 (Table N4)

CC[C@H]1OC(=O)[C@H](C)C(=O)[C@H](C)[C@@H](O[C@@H]2O[C@H](C)CC(N3CCCC3)C2O)[C@](C)(OC)C[C@@H](C)CN[C@H](C)[C@H]2N(CCCCn3cc(-c4cccc(N)c4)nn3)C(=O)O[C@]12C (some centres unmarked) [FSM-120361]
MIC ([1]; Acinetobacter baumannii, ATCC19606, ATCC19606, Strain No. MP-15, read-out: MIC A. baumannii ATCC19606): 32 µg/mL (≈ 37.5 µM) | MIC ([1]; Acinetobacter baumannii, clinical, Strain No. MP576, read-out: MIC A. baumannii clinical): > 64 µg/mL | MIC ([1]; Acinetobacter baumannii, clinical, Strain No. MP577, read-out: MIC A. baumannii clinical): 64 µg/mL (≈ 74.9 µM) | MIC ([2]; ATCC29212, ATCC29212, Strain No. MP-24, read-out: MIC E. faecalis ATCC29212): 4 µg/mL (≈ 4.68 µM) | MIC ([2]; van resistant, Strain No. UNT-039, read-out: MIC E. faecalis van resistant): > 64 µg/mL | MIC ([3]; ATCC19615, ATCC19615, Strain No. MP-19, read-out: MIC S. pyogenes ATCC19615): 0.06 µg/mL (≈ 0.0702 µM) | MIC ([3]; mac resistant, Strain No. MP-625 UNT-014, read-out: MIC S. pyogenes mac resistant): 0.5 µg/mL (≈ 0.585 µM) | MIC ([4]; Escherichia coli, ATCC25922, ATCC25922, Strain No. MP-4, read-out: MIC E. coli ATCC25922): 32 µg/mL (≈ 37.5 µM) | MIC ([4]; Escherichia coli, ATCC25922, ATCC25922:tolC, Strain No. MP-9, read-out: MIC E. coli ATCC25922:tolC): 4 µg/mL (≈ 4.68 µM) | MIC ([4]; Escherichia coli, clinical, Strain No. MP541, read-out: MIC E. coli clinical): 32 µg/mL (≈ 37.5 µM) | MIC ([4]; Escherichia coli, clinical-cErm, Strain No. MP532, read-out: MIC E. coli clinical-cErm): > 64 µg/mL | MIC ([5]; Pseudomonas aeruginosa, PAO1, read-out: MIC P. aeruginosa PAO1): > 64 µg/mL | MIC ([5]; Pseudomonas aeruginosa, PAO1, read-out: MIC P. aeruginosa PAO1:mex): 16 µg/mL (≈ 18.7 µM) | MIC ([5]; Pseudomonas aeruginosa, ATCC27853, Strain No. MP-3, read-out: MIC P. aeruginosa ATCC27853): > 64 µg/mL | MIC ([6]; Klebsiella pneumoniae, ATCC10031, ATCC10031, Strain No. MP-14, read-out: MIC K. pneumoniae ATCC10031): 4 µg/mL (≈ 4.68 µM) | MIC ([6]; Klebsiella pneumoniae, clinical, Strain No. MP546, read-out: MIC K. pneumoniae clinical): > 64 µg/mL | MIC ([6]; Klebsiella pneumoniae, clinical, Strain No. MP548, read-out: MIC K. pneumoniae clinical): 64 µg/mL (≈ 74.9 µM) | MIC ([7]; Staphylococcus aureus, ATCC29213, ATCC29213, Strain No. MP-12, read-out: MIC S. aureus ATCC29213): 32 µg/mL (≈ 37.5 µM) | MIC ([7]; Staphylococcus aureus, ATCCBAA977, ATCCBAA-977, Strain No. MP-17, read-out: MIC S. aureus ATCCBAA-977): 32 µg/mL (≈ 37.5 µM) | MIC ([7]; Staphylococcus aureus, MRSA / USA100, USA100, Strain No. MP-618 UNT-096, read-out: MIC S. aureus (MRSA) USA100): > 64 µg/mL | MIC ([7]; Staphylococcus aureus, MRSA / USA300, USA300, Strain No. MP-549, read-out: MIC S. aureus (MRSA) USA300): 32 µg/mL (≈ 37.5 µM) | MIC ([7]; Staphylococcus aureus, MRSA / USA600, GISA USA600, Strain No. MP-619 UNT-120, read-out: MIC S. aureus (MRSA) GISA USA600): > 64 µg/mL | MIC ([7]; Staphylococcus aureus, MRSA, ST-228 cErm, Strain No. MP-513, read-out: MIC S. aureus (MRSA) ST-228 cErm): > 64 µg/mL | MIC ([8]; ATCC49619, ATCC49619, Strain No. MP-21, read-out: MIC S. pneumoniae ATCC49619): 0.25 µg/mL (≈ 0.293 µM) | MIC ([8]; read-out: MIC S. pneumoniae mefA, mefA, Strain No. MP-626 UNT-038): 0.125 µg/mL (≈ 0.146 µM) | MIC ([8]; read-out: MIC S. pneumoniae mefA, mefA, Strain No. MP-627 UNT-039): 0.125 µg/mL (≈ 0.146 µM)

CCC1OC(=O)C(C)C(=O)C(C)C(OC2OC(C)CC(Nc3cnccn3)C2O)C(C)(OC)CC(C)CNC(C)C2N(CCCCn3cc(-c4cccc(N)c4)nn3)C(=O)OC12C (centres unmarked) [FSM-120410]
MIC [1, 9]: >64 µg/mL | MIC [1, 10]: >64 µg/mL | MIC [1, 11]: >64 µg/mL | MIC [4, 12]: >64 µg/mL | MIC [4, 13]: >64 µg/mL | MIC [4, 14]: >64 µg/mL | MIC [4, 15]: >64 µg/mL | MIC [5, 16]: >64 µg/mL | MIC [5, 17]: >64 µg/mL | MIC [5, 18]: >64 µg/mL | MIC [6, 19]: >64 µg/mL | MIC [6, 20]: >64 µg/mL | MIC [6, 21]: >64 µg/mL | MIC [7, 22]: >64 µg/mL | MIC [7, 23]: >64 µg/mL | MIC [7, 24]: >64 µg/mL | MIC [7, 25]: >64 µg/mL

CCC1OC(=O)C(C)C(=O)C(C)C(OC2OC(C)CC(N3CCC(O)C3)C2O)C(C)(OC)CC(C)CNC(C)C2N(CCCCn3cc(-c4cccc(N)c4)nn3)C(=O)OC12C (centres unmarked) [FSM-120416]
MIC [1, 9]: >64 µg/mL | MIC [1, 10]: >64 µg/mL | MIC [1, 11]: >64 µg/mL | MIC [4, 12]: >64 µg/mL | MIC [4, 13]: >64 µg/mL | MIC [4, 14]: >64 µg/mL | MIC [4, 15]: 8 µg/mL (≈ 9.19 µM) | MIC [5, 16]: >64 µg/mL | MIC [5, 17]: >64 µg/mL | MIC [5, 18]: >64 µg/mL | MIC [6, 19]: 32 µg/mL (≈ 36.8 µM) | MIC [6, 20]: >64 µg/mL | MIC [6, 21]: >64 µg/mL | MIC [7, 22]: >64 µg/mL | MIC [7, 23]: >64 µg/mL | MIC [7, 24]: >64 µg/mL | MIC [7, 25]: >64 µg/mL

CCC1OC(=O)C(C)C(=O)C(C)C(OC2OC(C)CC(N3CCC(O)C3)C2O)C(C)(OC)CC(C)CNC(C)C2N(CCCCn3cc(-c4cccc(N)c4)nn3)C(=O)OC12C (centres unmarked) [FSM-120417]
MIC [1, 9]: 32 µg/mL (≈ 36.8 µM) | MIC [1, 10]: 32 µg/mL (≈ 36.8 µM) | MIC [1, 11]: >64 µg/mL | MIC [4, 12]: 16 µg/mL (≈ 18.4 µM) | MIC [4, 13]: 16 µg/mL (≈ 18.4 µM) | MIC [4, 14]: >64 µg/mL | MIC [4, 15]: 2 µg/mL (≈ 2.3 µM) | MIC [5, 16]: >64 µg/mL | MIC [5, 17]: >64 µg/mL | MIC [5, 18]: 32 µg/mL (≈ 36.8 µM) | MIC [6, 19]: 4 µg/mL (≈ 4.6 µM) | MIC [6, 20]: 64 µg/mL (≈ 73.6 µM) | MIC [6, 21]: >64 µg/mL | MIC [7, 22]: 32 µg/mL (≈ 36.8 µM) | MIC [7, 23]: 64 µg/mL (≈ 73.6 µM) | MIC [7, 24]: >64 µg/mL | MIC [7, 25]: 64 µg/mL (≈ 73.6 µM)
